Read-outs that look alike come from different tables or passages of the source.
Tests used:
[1] = molecular target: T1, hAChE (human recombinant acetylcholinesterase) (Homo sapiens, UniProt P22303); assay: biochemical; design: modified Ellman assay, cholinesterase activity, absorbance at 412 nm
T1 construct: gene ACHE; recombinant enzyme, purchased from Sigma-Aldrich
Description: (§1) The inhibitory activities of 5–7 and all the reference compounds were determined using modified Ellman’s method against human recombinant AChE (hAChE, E.C. 3.1.1.7, purchased from Sigma-Aldrich, Prague, Czech Republic) and human plasmatic BChE (hBChE, E.C. 3.1.1.8, purchased from Sigma-Aldrich, Prague, Czech Republic). The results are expressed as IC50 (the concentration of the compound that is required to reduce 50% of cholinesterase activity). Other used compounds – phosphate buffer solution (PBS, pH = 7.4), 5,5’-dithio-bis(2-nitrobenzoic) acid (Ellman’s reagent, DTNB), acetylthiocholine (ATCh) and butyrylthiocholine (BTCh) were also commercially available and were purchased from Sigma-Aldrich (Prague, Czech Republic). During the measurement, 96-well microplates from polystyrene (ThermoFisher Scientific, Waltham, MA, USA) were used. The solutions of corresponding enzyme in PBS were prepared up to final activity 0.002 U/µL. The assay medium (100 µL) consisted of cholinesterase (10 µL), DTNB (20 µL of 0.01 M solution) and PBS (40 µL of 0.1 M solution). The solutions of the tested compounds (10 µL of different concentrations) were pre- incubated for 5 minutes in the assay medium and then solution of substrate (20 µL of 0.01 M ATCh or BTCh iodide solution) was added to initiate the reaction. The increase of absorbance was measured at 412 nm using Multimode microplate reader Synergy 2 (BioTek Inc., Winooski, VT, USA). For the calculation of the resulting measured activity (the percentage of inhibition I) following formula was used: [drawing 1] where ΔAi indicates absorbance change provided by adequate enzyme exposed to corresponding inhibitor and ΔA0 indicates absorbance change when a solution of PBS was added instead of a solution of inhibitor. Software Microsoft Excel (Redmont, WA, USA) and GraphPad Prism version 5.02 for Windows (GraphPad Software, San Diego, CA, USA) were used for the statistical data evaluation. ChEs are enzymes responsible for the hydrolysis and metabolism of various endogenous and exogenous substrates, that are broadly studied in association with disease conditions like myasthenia gravis or AD. The primary attention in the development of AD drugs has been paid to AChE inhibitors. Nevertheless, there is growing interest in nonselective or BChE-selective inhibitors due to the compensatory role of BChE when AChE levels are depleted during the progression of AD [23]. Selective BChE inhibitors may be beneficial for patients in moderate-to-severe stages of AD [23, 24]. […] Accordingly, we assessed the inhibition activities of these novel compounds against human recombinant AChE (hAChE) and human serum BChE (hBChE) following a modified spectrophotometric protocol developed by Ellman et al.. […] Complete data are available in the Supplementary Information (Table S1), including the inhibition percentages for all derivatives. Amiridine hydrochloride (amiridine.HCl) and tacrine (THA) were used as reference compounds. […] Only a superficial structure-activity relationship for AChE inhibition can be drawn from the obtained data. […] The presence of any substituent on the benzothiazole core enhanced anti-AChE activity, with the best-tolerated position for the substituent being 6 for derivatives with halogen atoms (7b-d with bromine or 7g-h with [compound left out]. h

[2] = molecular target: T2, hBChE (human serum / plasmatic butyrylcholinesterase) (Homo sapiens, UniProt P06276); assay: biochemical; design: modified Ellman assay, cholinesterase activity, absorbance at 412 nm
T2 construct: gene BCHE; native enzyme from human plasma/serum, purchased from Sigma-Aldrich
T2 sequence (P06276 29-602): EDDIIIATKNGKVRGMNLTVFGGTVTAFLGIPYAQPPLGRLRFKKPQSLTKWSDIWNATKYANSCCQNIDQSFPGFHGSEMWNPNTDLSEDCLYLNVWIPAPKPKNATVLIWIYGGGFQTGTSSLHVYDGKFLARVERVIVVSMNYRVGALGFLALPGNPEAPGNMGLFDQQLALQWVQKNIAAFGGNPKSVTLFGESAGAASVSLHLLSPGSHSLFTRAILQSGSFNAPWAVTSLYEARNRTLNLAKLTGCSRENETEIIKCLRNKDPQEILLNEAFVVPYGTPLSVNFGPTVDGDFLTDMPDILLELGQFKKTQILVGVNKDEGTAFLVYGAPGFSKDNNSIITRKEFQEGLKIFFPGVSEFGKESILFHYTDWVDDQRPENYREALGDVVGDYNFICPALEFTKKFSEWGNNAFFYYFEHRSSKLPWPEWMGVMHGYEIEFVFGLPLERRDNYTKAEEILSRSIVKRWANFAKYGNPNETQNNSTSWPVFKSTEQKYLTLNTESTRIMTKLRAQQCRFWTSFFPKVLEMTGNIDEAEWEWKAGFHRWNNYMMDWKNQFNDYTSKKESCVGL
Description: as §1

in vitro [3] = assay: in vitro; design: MTT viability assay, undifferentiated SH-SY5Y cells; details: human, undifferentiated sh-sy5y cells, read-out: SH-SY5Y IC50
Description: (§2) The cytotoxic profile of 5–7 was carried through the use of the MTT (3-(4,5-dimethylthiazol-2-yl)-2,5-diphenyltetrazolium bromide) assay on human neuroblastoma (SH-SY5Y) and hepatocellular carcinoma (HepG2) cell lines, following established protocols. The cytotoxicity was assessed on SH-SY5Y cells in undifferentiated and in differentiated form. The data obtained from the measurements on the undifferentiated SH-SY5Y and HepG2 cells are summarized in Table 1 for 5c-d, 7c and 7g, as well as for the reference compounds amiridine hydrochloride and THA. Additional data can be found in Supplementary Information (Table S2 and Fig. S1). The both cell lines were cultured according to ECACC recommended conditions and seeded into 96-well plates in 100 µL and density of 8000 per well. For evaluation of cytotoxicity of the differentiated form the SH-SY5Y cells also underwent 9-day differentiation protocol into mature neurons according to Riegerová et al .. The tested compounds were dissolved in DMSO (Sigma Aldrich) or in phosphate buffer saline (PBS, Sigma Aldrich) and subsequently in the growth medium - high glucose Dulbecco’s Modified Eagle’s medium (DMEM; Sigma-Aldrich, D6429). […] Then, the differentiated SH-SY5Y cells were treated with concentrations corresponding to IC50 values obtained from the cytotoxicity measurement using undifferentiated SH-SY5Y cells. Cells were exposed to a tested compound for 24 h. Then the medium was replaced by a medium containing 10 μM of MTT and cells were allowed to produce formazan for another approximately 3 h under surveillance. Thereafter, medium was aspirated and purple crystals of MTT formazan were dissolved in 100 μL DMSO under shaking. Cell viability was assessed spectrophotometrically by the amount of formazan produced. Absorbance was measured at 570 nm with 650 nm reference wavelength on Spark (Tecan Group Ltd, Switzerland). The IC50 value was then calculated from the control-subtracted triplicates using non-linear regression (four parameters) of GraphPad Prism 9 software. Final IC50 and SEM values were obtained as a mean of three independent measurements.

in vitro [4] = assay: in vitro; design: MTT viability assay, HepG2 cells; details: human, hepg2 cells; read-out: HepG2 IC50
Description: as §2

in vitro [5] = assay: in vitro; design: PAMPA blood-brain barrier permeability, effective permeability Pe; details: PAMPA-BBB Pe
Excerpt: page 4 / Table S1. Inhibition activities of 5–7 and reference compounds (amiridine hydrochloride and THA). hAChE ± SEM^a hBChE ± SEM^a / Pe (10^-6 cm.s^-1)

in vitro [6] = assay: in vitro; design: PAMPA blood-brain barrier permeability, effective permeability Pe; details: PAMPA-BBB Pe; remark: listed apart in the source
Excerpt: page 5 / Table S2. Cytotoxicity profiles of 5–7 on SH-SY5Y cell line and predictions to BBB penetration by PAMPA results. / Pe (10^-6 cm.s^-1)

[7] = molecular target: T2, hBChE (human serum / plasmatic butyrylcholinesterase); assay: modified Ellman assay, […] nm; type: biochemical

T1 sequence (P22303 32-614): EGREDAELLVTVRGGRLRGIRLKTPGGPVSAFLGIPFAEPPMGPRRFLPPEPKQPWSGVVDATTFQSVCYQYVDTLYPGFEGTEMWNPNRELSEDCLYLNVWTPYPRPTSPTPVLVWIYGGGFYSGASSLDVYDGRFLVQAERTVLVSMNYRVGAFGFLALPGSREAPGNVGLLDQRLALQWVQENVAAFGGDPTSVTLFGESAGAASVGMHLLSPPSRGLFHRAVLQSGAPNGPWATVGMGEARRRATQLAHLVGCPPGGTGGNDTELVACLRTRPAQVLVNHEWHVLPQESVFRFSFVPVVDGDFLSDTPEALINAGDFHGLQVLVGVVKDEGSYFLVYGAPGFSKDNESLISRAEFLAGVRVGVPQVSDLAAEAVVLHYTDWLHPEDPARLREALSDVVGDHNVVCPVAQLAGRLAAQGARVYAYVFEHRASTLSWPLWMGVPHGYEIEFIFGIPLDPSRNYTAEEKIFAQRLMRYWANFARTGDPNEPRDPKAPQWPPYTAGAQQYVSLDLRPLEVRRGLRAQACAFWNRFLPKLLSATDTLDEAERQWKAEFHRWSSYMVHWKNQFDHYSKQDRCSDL

SMILES | inhibition at 1 µM [1] [%] | inhibition at 1 µM [2] [%] | CC50 at 24 h (in vitro [3]) [µM] | CC50 at 24 h (in vitro [4]) [µM] | Papp (in vitro [5]) [×10⁻⁶ cm/s] | Papp (in vitro [6]) [×10⁻⁶ cm/s] | IC50 [7] [µM]
O=C(CNC12CC3CC(CC(C3)C1)C2)Nc1c2c(nc3c1CCC3)CCCC2 [5a] | 2.83 ± 0.49 | 14 ± 1.75 | 74 ± 2.8 | 67.9 ± 1.12 | 23.4 ± 1.86 | – | –
CC12CC3CC(C)(C1)CC(NCC(=O)Nc1c4c(nc5c1CCC5)CCCC4)(C3)C2 [5b] | 9.13 ± 0.48 | 18.6 ± 0.65 | 31 ± 2.76 | 19.5 ± 1.72 | – | 7.63 ± 0.09 | –
Clc1nc2ccccc2s1 [7a, 2-chlorobenzothiazole] | 1.46 ± 0.17 | 7.19 ± 0.91 | 72.3 ± 6.89 | ≥ 200 | – | 20.6 ± 0.44 | –
O=C(CNc1nc2ccc(Br)cc2s1)Nc1c2c(nc3c1CCC3)CCCC2 [7b, 2-[(6-bromo-1,3-benzothiazol-2-yl)amino]-N-{1H,2H,3H,5H,6H,7H,8H-cyclopenta[b]quinolin-9-yl}acetamide] | 18.5 ± 0.37 | 10.83 ± 0.09 | ≥ 200 | ≥ 200 | – | 3.74 ± 0.36 | –
O=C(CNc1nc2cc(Br)ccc2s1)Nc1c2c(nc3c1CCC3)CCCC2 [7c, 2-[(5-bromo-1,3-benzothiazol-2-yl)amino]-N-{1H,2H,3H,5H,6H,7H,8H-cyclopenta[b]quinolin-9-yl}acetamide] | 15.7 ± 1.17 | 25 ± 2.39 | 17.7 ± 2.34 | 21.61 ± 0.21 | – | 2.13 ± 1.04 | 4.9 ± 0.4
O=C(CNc1nc2c(Br)cccc2s1)Nc1c2c(nc3c1CCC3)CCCC2 [7d, 2-[(4-bromo-1,3-benzothiazol-2-yl)amino]-N-{1H,2H,3H,5H,6H,7H,8H-cyclopenta[b]quinolin-9-yl}acetamide] | 1.8 ± 0.33 | 6.73 ± 0.45 | 111 ± 5.6 | 14.5 ± 1.84 | – | 2.62 | –
N#Cc1ccc2sc(NCC(=O)Nc3c4c(nc5c3CCC5)CCCC4)nc2c1 [7e, 2-[(5-cyano-1,3-benzothiazol-2-yl)amino]-N-{1H,2H,3H,5H,6H,7H,8H-cyclopenta[b]quinolin-9-yl}acetamide] | 13.3 ± 0.57 | 13.9 ± 0.6 | 77.4 ± 4.54 | 26.4 ± 1.82 | – | 13.9 ± 1.26 | –
O=C(CNc1nc2cc(Cl)ccc2s1)Nc1c2c(nc3c1CCC3)CCCC2 [7g, 2-[(5-chloro-1,3-benzothiazol-2-yl)amino]-N-{1H,2H,3H,5H,6H,7H,8H-cyclopenta[b]quinolin-9-yl}acetamide] | 11.9 ± 0.74 | 26.5 ± 1.45 | 98.2 ± 5.74 | ≥ 200 | – | 2.8 ± 0.79 | 11 ± 1.2
O=C(CNc1nc2ccc([N+](=O)[O-])cc2s1)Nc1c2c(nc3c1CCC3)CCCC2 [7i, N-{1H,2H,3H,5H,6H,7H,8H-cyclopenta[b]quinolin-9-yl}-2-[(6-nitro-1,3-benzothiazol-2-yl)amino]acetamide] | 7.98 ± 0.99 | 0.93 ± 0.08 | 91.3 ± 11 | ≥ 200 | – | 4.89 ± 1.5 | –
O=C(CNc1nc2cc([N+](=O)[O-])ccc2s1)Nc1c2c(nc3c1CCC3)CCCC2 [7j, N-{1H,2H,3H,5H,6H,7H,8H-cyclopenta[b]quinolin-9-yl}-2-[(5-nitro-1,3-benzothiazol-2-yl)amino]acetamide] | 8.2 ± 0.41 | 8.03 ± 1.37 | 93.7 ± 5.38 | 25.83 ± 0.25 | – | 1.83 ± 0.54 | –
O=C(CNc1nc2cccc([N+](=O)[O-])c2s1)Nc1c2c(nc3c1CCC3)CCCC2 [7k, N-{1H,2H,3H,5H,6H,7H,8H-cyclopenta[b]quinolin-9-yl}-2-[(7-nitro-1,3-benzothiazol-2-yl)amino]acetamide] | 9.62 ± 0.41 | 4.47 ± 0.58 | 51 ± 8.56 | ≥ 200 | – | 1.12 ± 0.62 | –
CSc1ccc2nc(NCC(=O)Nc3c4c(nc5c3CCC5)CCCC4)sc2c1 [7l, N-{1H,2H,3H,5H,6H,7H,8H-cyclopenta[b]quinolin-9-yl}-2-{[6-(methylsulfanyl)-1,3-benzothiazol-2-yl]amino}acetamide] | 7.56 ± 0.38 | 6.05 ± 1.77 | 173 ± 17.6 | ≥ 200 | – | 2.65 ± 0.01 | –
Cc1c(C)c2c(c(C)c1O)CCC(C)(C(=O)NCC(=O)Nc1c3c(nc4c1CCC4)CCCC3)O2 (stereo not drawn) [compound 6, N-{1H,2H,3H,5H,6H,7H,8H-cyclopenta[b]quinolin-9-yl}-2-[(6-hydroxy-2,5,7,8-tetramethyl-3,4-dihydro-2H-1-benzopyran-2-yl)formamido]acetamide] | 3.95 ± 0.25 | 21.5 ± 0.94 | ≥ 200 | – | – | 15.9 ± 0.38 | –
